Assay results from ChEMBL document CHEMBL3632469, “Discovery of dihydroquinazolinone derivatives as potent, selective, and CNS-penetrant M(1) and M(4) muscarinic acetylcholine receptors agonists” (Bioorg Med Chem Lett, 2015).

How the values were obtained:
[1] = biological target: Cytochrome P450 1A2 (Homo sapiens, UniProt P05177); assay: Inhibition of CYP1A2 (unknown origin); type: ADME
[2] = biological target: 5-hydroxytryptamine receptor 1B (Homo sapiens) (UniProt P28222); assay: Agonist activity at 5-HT1B receptor (unknown origin) expressed in CHO cells assessed as calcium mobilization at 3 uM; type: functional, cell-based
[3] = biological target: Adenosine receptor A2a (Homo sapiens) (UniProt P29274); assay: Agonist activity at adenosine a2a receptor (unknown origin) expressed in CHO cells assessed as calcium mobilization at 3 uM; type: functional, cell-based
[4] = biological target: 5-hydroxytryptamine receptor 1A (Homo sapiens) (UniProt P08908); assay: Agonist activity at 5-HT1a receptor (unknown origin) expressed in CHO cells assessed as calcium mobilization at 3 uM; type: functional, cell-based
[5] = biological target: Somatostatin receptor type 2 (Homo sapiens) (UniProt P30874); assay: Agonist activity at SSTR2 receptor (unknown origin) expressed in CHO cells assessed as calcium mobilization at 3 uM; type: functional, cell-based
[6] = biological target: D(1A) dopamine receptor (Homo sapiens) (UniProt P21728); assay: Agonist activity at dopamine D1 receptor (unknown origin) expressed in CHO cells assessed as calcium mobilization at 3 uM; type: functional, cell-based
[7] = biological target: 5-hydroxytryptamine receptor 2B (Homo sapiens) (UniProt P41595); assay: Agonist activity at 5-HT2B receptor (unknown origin) expressed in CHO cells assessed as calcium mobilization at 3 uM; type: functional, cell-based
[8] = biological target: 5-hydroxytryptamine receptor 2C (Homo sapiens) (UniProt P28335); assay: Antagonist activity at 5-HT2C receptor (unknown origin) expressed in CHO cells assessed as calcium mobilization at 3 uM; type: functional, cell-based
[9] = biological target: Beta-1 adrenergic receptor (Homo sapiens) (UniProt P08588); assay: Antagonist activity at adrenergic beta1 receptor (unknown origin) expressed in CHO cells assessed as calcium mobilization at 3 uM; type: functional, cell-based
[10] = biological target: Adenosine receptor A1 (Homo sapiens) (UniProt P30542); assay: Antagonist activity at adenosine a1 receptor (unknown origin) expressed in CHO cells assessed as calcium mobilization at 3 uM; type: functional, cell-based
[11] = biological target: T1, Muscarinic acetylcholine receptor M4 (Homo sapiens) (UniProt P08173); assay: Partial agonist activity at human muscarinic M4 acetylcholine receptor expressed in CHO cells co-expressing Galpha16 assessed as calcium mobilization by FLIPR assay relative to control; type: functional, cell-based
T1 sequence (whole entry): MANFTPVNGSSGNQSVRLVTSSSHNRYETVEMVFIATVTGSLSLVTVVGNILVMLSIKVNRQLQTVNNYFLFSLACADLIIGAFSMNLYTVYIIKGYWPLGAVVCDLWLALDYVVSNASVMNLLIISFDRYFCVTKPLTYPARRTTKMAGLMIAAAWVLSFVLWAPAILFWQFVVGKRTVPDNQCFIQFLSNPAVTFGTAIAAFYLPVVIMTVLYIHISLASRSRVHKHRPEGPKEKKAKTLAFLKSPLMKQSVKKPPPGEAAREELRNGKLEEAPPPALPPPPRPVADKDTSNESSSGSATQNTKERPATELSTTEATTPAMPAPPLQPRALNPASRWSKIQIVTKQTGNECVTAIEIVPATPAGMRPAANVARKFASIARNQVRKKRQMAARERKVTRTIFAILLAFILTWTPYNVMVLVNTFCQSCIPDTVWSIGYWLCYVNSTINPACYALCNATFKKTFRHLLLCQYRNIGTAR

[12] = biological target: D(2) dopamine receptor (Homo sapiens) (UniProt P14416); assay: Binding affinity to dopamine D2 receptor (unknown origin) at 3 uM by radioligand-binding assay
[13] = biological target: Cysteinyl leukotriene receptor 1 (Homo sapiens) (UniProt Q9Y271); assay: Agonist activity at CysLT1 receptor (unknown origin) expressed in CHO cells assessed as calcium mobilization at 3 uM; type: functional, cell-based
[14] = biological target: Beta-2 adrenergic receptor (Homo sapiens) (UniProt P07550); assay: Agonist activity at adrenergic beta2 receptor (unknown origin) expressed in CHO cells assessed as calcium mobilization at 3 uM; type: functional, cell-based
[15] = biological target: Kappa-type opioid receptor (Homo sapiens) (UniProt P41145); assay: Antagonist activity at opiate kappa receptor (unknown origin) expressed in CHO cells assessed as calcium mobilization at 3 uM; type: functional, cell-based
[16] = biological target: Cytochrome P450 2C19 (Homo sapiens, UniProt P33261); assay: Inhibition of CYP2C19 (unknown origin); type: ADME
[17] = biological target: Neuropeptide Y receptor type 2 (Homo sapiens) (UniProt P49146); assay: Antagonist activity at NPY2 receptor (unknown origin) expressed in CHO cells assessed as calcium mobilization at 3 uM; type: functional, cell-based
[18] = biological target: Endothelin-1 receptor (Homo sapiens) (UniProt P25101); assay: Agonist activity at endothelin a receptor (unknown origin) expressed in CHO cells assessed as calcium mobilization at 3 uM; type: functional, cell-based
[19] = biological target: Histamine H3 receptor (Homo sapiens) (UniProt Q9Y5N1); assay: Agonist activity at histamine H3 receptor (unknown origin) expressed in CHO cells assessed as calcium mobilization at 3 uM; type: functional, cell-based
[20] = biological target: T2, Muscarinic acetylcholine receptor M1 (Homo sapiens) (UniProt P11229); assay: Agonist activity at human muscarinic M1 acetylcholine receptor expressed in CHO cells assessed as calcium mobilization at 0.3 uM by FLIPR assay; type: functional, cell-based
T2 sequence (whole entry): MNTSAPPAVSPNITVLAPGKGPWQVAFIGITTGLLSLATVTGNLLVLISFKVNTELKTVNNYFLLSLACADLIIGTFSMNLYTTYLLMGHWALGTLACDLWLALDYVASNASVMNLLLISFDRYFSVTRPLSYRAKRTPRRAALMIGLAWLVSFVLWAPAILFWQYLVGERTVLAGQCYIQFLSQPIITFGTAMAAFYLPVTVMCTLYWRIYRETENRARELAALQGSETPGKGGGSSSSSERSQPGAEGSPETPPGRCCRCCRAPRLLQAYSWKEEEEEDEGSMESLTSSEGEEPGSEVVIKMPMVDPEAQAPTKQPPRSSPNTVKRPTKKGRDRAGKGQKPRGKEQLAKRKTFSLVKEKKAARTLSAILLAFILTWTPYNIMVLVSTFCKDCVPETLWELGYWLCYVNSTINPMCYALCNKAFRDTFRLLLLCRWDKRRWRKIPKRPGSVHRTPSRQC

[21] = biological target: 5-hydroxytryptamine receptor 1F (Homo sapiens) (UniProt P30939); assay: Agonist activity at 5-HT1F receptor (unknown origin) expressed in CHO cells assessed as calcium mobilization at 3 uM; type: functional, cell-based
[22] = Permeability of the compound at pH 7.4 by PAMPA method; type: physicochemical; conditions: read-out: permeability
[23] = biological target: T2, Muscarinic acetylcholine receptor M1 (Homo sapiens); assay: Agonist activity at human muscarinic M1 acetylcholine receptor expressed in CHO cells assessed as calcium mobilization by FLIPR assay relative to control; type: functional, cell-based
[24] = biological target: Cysteinyl leukotriene receptor 1 (Homo sapiens) (UniProt Q9Y271); assay: Antagonist activity at CysLT1 receptor (unknown origin) expressed in CHO cells assessed as calcium mobilization at 3 uM; type: functional, cell-based
[25] = biological target: Histamine H1 receptor (Homo sapiens) (UniProt P35367); assay: Antagonist activity at histamine H1 receptor (unknown origin) expressed in CHO cells assessed as calcium mobilization at 3 uM; type: functional, cell-based
[26] = biological target: Alpha-1A adrenergic receptor (Homo sapiens) (UniProt P35348); assay: Binding affinity to adrenergic alpha1A receptor (unknown origin) at 3 uM by radioligand-binding assay

Chain of Cysteinyl leukotriene receptor 1 (Homo sapiens) (Q9Y271 whole entry): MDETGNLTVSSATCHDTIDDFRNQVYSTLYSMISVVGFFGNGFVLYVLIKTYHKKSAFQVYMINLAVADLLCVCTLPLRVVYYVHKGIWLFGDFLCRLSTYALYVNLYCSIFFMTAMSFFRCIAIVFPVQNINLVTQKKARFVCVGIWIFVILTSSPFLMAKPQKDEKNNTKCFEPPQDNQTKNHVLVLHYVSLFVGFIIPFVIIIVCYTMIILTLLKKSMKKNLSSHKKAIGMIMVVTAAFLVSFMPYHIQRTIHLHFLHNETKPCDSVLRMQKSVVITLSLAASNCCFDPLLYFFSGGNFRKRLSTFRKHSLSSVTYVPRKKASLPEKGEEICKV
Chain of Kappa-type opioid receptor (Homo sapiens) (P41145 whole entry): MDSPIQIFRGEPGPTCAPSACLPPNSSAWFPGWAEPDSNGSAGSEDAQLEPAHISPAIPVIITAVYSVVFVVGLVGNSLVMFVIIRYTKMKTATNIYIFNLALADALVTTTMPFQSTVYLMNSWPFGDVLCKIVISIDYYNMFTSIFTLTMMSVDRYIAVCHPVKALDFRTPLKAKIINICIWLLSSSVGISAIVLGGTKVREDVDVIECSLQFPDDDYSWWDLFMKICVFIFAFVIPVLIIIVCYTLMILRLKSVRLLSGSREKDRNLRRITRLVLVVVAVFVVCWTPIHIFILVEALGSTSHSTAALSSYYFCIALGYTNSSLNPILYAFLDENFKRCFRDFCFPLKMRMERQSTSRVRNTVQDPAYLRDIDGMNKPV
Chain of 5-hydroxytryptamine receptor 1A (Homo sapiens) (P08908 whole entry): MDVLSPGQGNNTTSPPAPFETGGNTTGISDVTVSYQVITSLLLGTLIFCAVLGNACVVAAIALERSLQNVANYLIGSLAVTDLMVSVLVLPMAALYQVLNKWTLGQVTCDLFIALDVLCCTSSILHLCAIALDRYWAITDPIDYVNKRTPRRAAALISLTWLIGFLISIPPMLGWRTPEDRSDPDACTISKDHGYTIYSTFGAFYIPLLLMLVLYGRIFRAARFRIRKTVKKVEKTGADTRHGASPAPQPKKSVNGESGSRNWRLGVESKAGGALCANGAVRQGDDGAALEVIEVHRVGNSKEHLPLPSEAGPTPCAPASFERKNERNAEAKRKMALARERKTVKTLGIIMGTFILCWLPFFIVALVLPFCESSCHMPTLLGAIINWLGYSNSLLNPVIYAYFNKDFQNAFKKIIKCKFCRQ
Chain of Adenosine receptor A1 (Homo sapiens) (P30542 whole entry): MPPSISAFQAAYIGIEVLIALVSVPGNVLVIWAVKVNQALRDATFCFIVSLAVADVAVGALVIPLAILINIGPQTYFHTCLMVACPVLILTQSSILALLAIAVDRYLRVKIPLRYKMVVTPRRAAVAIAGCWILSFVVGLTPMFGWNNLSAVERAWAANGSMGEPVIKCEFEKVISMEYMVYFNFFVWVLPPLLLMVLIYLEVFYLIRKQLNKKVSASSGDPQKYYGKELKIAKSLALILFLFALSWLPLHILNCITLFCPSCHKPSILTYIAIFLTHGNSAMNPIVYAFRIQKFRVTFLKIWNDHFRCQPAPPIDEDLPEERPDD
Chain of Neuropeptide Y receptor type 2 (Homo sapiens) (P49146 whole entry): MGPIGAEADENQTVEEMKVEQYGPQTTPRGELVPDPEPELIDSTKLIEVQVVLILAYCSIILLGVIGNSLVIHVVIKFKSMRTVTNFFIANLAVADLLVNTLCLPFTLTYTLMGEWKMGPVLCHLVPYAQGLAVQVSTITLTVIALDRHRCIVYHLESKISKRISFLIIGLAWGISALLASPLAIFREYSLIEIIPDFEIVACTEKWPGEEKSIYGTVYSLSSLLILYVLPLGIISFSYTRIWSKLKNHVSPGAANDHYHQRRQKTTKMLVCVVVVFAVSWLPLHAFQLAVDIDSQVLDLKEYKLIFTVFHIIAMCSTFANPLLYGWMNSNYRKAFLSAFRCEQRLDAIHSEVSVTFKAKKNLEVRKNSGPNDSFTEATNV
Chain of 5-hydroxytryptamine receptor 1F (Homo sapiens) (P30939 whole entry): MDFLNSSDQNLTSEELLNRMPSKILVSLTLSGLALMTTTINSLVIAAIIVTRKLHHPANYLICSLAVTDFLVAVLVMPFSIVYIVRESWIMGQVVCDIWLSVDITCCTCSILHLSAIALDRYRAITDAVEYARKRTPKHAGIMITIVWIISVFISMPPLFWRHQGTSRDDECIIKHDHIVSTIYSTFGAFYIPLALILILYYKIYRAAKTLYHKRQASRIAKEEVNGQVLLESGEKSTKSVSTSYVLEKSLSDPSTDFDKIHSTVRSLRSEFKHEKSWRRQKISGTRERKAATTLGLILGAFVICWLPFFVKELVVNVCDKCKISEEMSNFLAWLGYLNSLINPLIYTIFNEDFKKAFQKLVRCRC
Chain of 5-hydroxytryptamine receptor 2C (Homo sapiens) (P28335 whole entry): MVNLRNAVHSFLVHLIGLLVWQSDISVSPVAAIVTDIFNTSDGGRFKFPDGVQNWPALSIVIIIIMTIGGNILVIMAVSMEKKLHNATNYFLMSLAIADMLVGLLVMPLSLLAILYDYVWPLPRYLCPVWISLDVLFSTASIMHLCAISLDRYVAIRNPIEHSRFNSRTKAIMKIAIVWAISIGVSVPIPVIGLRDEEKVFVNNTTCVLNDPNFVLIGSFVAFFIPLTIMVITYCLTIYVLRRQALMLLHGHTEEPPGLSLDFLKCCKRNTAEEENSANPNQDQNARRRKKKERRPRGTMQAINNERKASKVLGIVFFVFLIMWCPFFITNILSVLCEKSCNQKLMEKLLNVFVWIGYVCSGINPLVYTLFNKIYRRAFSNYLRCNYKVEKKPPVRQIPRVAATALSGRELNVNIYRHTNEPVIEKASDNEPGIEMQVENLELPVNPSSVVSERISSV
Chain of Endothelin-1 receptor (Homo sapiens) (P25101 whole entry): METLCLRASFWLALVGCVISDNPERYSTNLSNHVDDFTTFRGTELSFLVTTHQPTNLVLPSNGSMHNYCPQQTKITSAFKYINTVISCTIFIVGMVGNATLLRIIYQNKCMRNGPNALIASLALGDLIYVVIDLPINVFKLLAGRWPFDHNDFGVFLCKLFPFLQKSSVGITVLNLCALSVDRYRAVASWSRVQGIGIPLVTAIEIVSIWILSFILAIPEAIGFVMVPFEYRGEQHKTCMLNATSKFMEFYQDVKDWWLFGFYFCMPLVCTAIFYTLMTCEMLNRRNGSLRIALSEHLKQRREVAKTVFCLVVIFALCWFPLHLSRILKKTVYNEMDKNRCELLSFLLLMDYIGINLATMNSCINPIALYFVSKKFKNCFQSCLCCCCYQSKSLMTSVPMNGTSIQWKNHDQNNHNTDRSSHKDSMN
Chain of Adenosine receptor A2a (Homo sapiens) (P29274 whole entry): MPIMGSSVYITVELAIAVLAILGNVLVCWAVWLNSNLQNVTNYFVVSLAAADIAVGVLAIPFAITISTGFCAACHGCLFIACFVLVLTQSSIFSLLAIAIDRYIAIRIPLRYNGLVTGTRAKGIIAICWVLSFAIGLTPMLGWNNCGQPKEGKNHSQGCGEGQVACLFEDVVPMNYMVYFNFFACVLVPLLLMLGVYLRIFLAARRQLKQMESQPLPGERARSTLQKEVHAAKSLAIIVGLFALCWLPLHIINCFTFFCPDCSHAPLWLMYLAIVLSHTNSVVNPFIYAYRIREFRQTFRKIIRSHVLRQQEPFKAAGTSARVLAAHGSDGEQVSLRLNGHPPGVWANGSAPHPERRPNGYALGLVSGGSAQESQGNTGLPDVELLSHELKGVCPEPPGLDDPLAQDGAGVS
Chain of D(2) dopamine receptor (Homo sapiens) (P14416 whole entry): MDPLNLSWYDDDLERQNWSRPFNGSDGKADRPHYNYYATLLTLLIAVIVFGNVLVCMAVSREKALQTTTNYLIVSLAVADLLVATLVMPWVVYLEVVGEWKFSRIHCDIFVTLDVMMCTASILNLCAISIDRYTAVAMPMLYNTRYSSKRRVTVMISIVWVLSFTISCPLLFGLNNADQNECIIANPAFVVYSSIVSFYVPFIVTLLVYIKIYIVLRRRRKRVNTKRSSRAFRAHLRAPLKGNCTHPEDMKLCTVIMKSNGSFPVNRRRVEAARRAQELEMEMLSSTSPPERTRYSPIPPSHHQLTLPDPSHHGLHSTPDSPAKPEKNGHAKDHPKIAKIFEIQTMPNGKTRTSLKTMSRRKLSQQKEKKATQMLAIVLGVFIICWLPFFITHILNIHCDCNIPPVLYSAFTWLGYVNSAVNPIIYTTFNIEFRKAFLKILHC
Chain of Beta-1 adrenergic receptor (Homo sapiens) (P08588 whole entry, looked up): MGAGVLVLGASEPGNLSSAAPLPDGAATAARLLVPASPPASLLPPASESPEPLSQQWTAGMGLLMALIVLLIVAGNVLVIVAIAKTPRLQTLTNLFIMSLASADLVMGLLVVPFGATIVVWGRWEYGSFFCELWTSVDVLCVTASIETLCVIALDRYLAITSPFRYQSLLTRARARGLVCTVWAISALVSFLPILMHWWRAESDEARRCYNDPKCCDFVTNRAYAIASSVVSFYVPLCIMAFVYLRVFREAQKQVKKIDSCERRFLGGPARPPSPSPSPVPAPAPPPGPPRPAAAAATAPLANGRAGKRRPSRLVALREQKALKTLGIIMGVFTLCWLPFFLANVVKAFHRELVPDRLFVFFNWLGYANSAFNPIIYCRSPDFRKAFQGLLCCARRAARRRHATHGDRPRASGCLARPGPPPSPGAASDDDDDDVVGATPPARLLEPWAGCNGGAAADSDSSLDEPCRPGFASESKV
Chain of Somatostatin receptor type 2 (Homo sapiens) (P30874 whole entry): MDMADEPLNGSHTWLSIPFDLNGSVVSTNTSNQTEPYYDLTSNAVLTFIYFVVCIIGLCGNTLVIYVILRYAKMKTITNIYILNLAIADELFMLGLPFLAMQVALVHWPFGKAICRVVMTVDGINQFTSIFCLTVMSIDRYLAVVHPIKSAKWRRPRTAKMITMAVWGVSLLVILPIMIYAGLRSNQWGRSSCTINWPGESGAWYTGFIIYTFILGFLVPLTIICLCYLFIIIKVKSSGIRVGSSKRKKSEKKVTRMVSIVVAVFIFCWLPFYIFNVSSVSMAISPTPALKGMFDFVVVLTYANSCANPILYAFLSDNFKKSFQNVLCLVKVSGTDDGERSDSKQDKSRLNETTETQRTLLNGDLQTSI

## CCOC(=O)N1[C@@H]2CC[C@H]1C[C@H](CN1CC[C@@H](N3Cc4ccccc4NC3=O)C1)C2
[1]
  IC50: > 2 µM
[2]
  Activity: -1.26%
[3]
  Activity: 0.38%
[4]
  Activity: 0.06%
[5]
  Activity: 0.39%
[6]
  Activity: 0.49%
[7]
  Activity: -0.03%
[8]
  inhibition: -5.25%
[9]
  inhibition: 27.6%
[10]
  inhibition: -3.67%
[11]
  Activity: 51%
[12]
  inhibition: 13%
[13]
  Activity: 0.45%
[14]
  Activity: -0.21%
[15]
  inhibition: 1.33%
[16]
  IC50: > 2 µM
[17]
  inhibition: -1.91%
[18]
  Activity: 0.27%
[19]
  Activity: -0.38%
[20]
  Activity: 81%
[21]
  Activity: -0.53%
[22]
  Papp: 53.8 ×10⁻⁶ cm/s
[23]
  Activity: 84%
[24]
  inhibition: 0.46%
[25]
  inhibition: 5.59%
[26]
  inhibition: 6%
